From patent US20250136581A1, “SUBSTITUTED TRIAZOLE DERIVATIVE, PREPARATION METHOD THEREFOR, PHARMACEUTICAL COMPOSITION THEREOF, AND USE THEREOF” (SHANGHAI SIMR BIOTECHNOLOGY CO., LTD., priority 2021, published 2025) come the findings set out here.

As usually defined, the Ki is a measure of affinity in units of concentration, obtained from inhibition or displacement.

The target of one assay is human α5β3γ2 receptors (α5-GABAA receptor) (Homo sapiens (Human), UniProt P18507+P31644). Description: 3H-flunitrazepam competition binding, human α5β3γ2 GABAA receptor. As to conditions: HEK293 cell membranes, 1 nM 3H-flunitrazepam; read-out: α5-GABAAR Ki. As for the experimental part: The affinity of the compound to each subtype of GABAA receptor was determined by competing for the binding of ^3H-flunitrazepam to HEK293 cells stably expressing human α1β3γ2, α2β3γ2, α3β3γ2, and α5β3γ2 receptors.
The cells were suspended in 50 mM Tris-HCl buffer (pH=7.4), homogenized 10 times on ice with a homogenizer for 20 seconds, and centrifuged at 1000 g for 10 minutes at 4° C. The supernatant was collected, and the above steps were repeated. The supernatant was centrifuged at 4° C. (33800 g; Thermo, rotor: A27-8×50) for 60 minutes, and the precipitate was resuspended in Tris buffer (50 mM Tris-HCl, 10 mM MgCl2, 0.5 mM EDTA, 10% glycerol). Protein was measured (BCA method, Pierce), and 1 mL aliquots were prepared and stored at −80° C.
The radioligand competition binding assay was performed in a 200 μL system (96-well plate) containing 100 μL of cell membrane. The concentration of ^3H-flunitrazepam was 1 nM and the concentration of the test compound was in the range of […]. Flumazenil was used as a control. 1 μL of 2 mM flumazenil (final concentration […]) was added to the low signal control well (Low control, LC), and 1 μL of DMSO was added to the high signal control well (High control, HC). The final concentration of target membrane protein was […]. All test compound sample storage solutions were 10 mM. The working concentration of the samples was to dilute all the samples to 0.2 mM with DMSO, followed by 4-fold serial gradient dilutions for a total of 8 concentration gradients. The 96-well plate was sealed with a sealing film, and then incubated on a shaker at room temperature for 1 hour. At the same time, the GF/C filter plate was soaked in soaking buffer (0.3% PEI, stored at 4° C.) for at least 0.5 hours. After the binding incubation was completed, the cells were collected onto a GF/C filter plate using a cell harvester. The plate was washed four times with washing buffer (50 mM Tris-HCl, pH 7.4, stored at 4° C.). After drying in a 50° C. oven for 1 hour, the bottom of the dried GF/C filter plate was sealed. The residual radioactivity on the filter membrane was detected using liquid scintillation counting. 50 μL of scintillation fluid was added to each well, and the plate was sealed. The readings were taken using a Microbeta2. The inhibitory activity of the test sample on the binding of ^3H-flunitrazepam to GABAA receptor membrane proteins was calculated, and the IC50 of each test sample was calculated by dose-effect curve fitting (GraphPad Prism 5 software), and the Ki of the sample was calculated from the IC50, thus evaluating the binding ability of the sample to the various subtypes of GABAA receptors.
In the case of `O=C1CN(c2ccc(OCc3cnnn3-c3ccc(Cl)cc3)nn2)CCN1` [Example 214, 4-(6-((1-(4-Chlorophenyl)-1H-1,2,3-triazol-5-yl)methoxy)pyridazin-3-yl)piperazin-2-one], the Ki is 49.2 nM.

As for `Cc1nnn(-c2ccc(C(F)F)cc2)c1COc1ccc(N2CCN3c4nc(F)ccc4NC(=O)[C@@H]3C2)nn1` [Example 195, (S)-8-(6-((1-(4-(Difluoromethyl)phenyl)-4-methyl-1H-1,2,3-triazol-5-yl)methoxy)pyridazin-3-yl)-2-fluoro-7,8,9,10-tetrahydro-5H-pyrazino[1,2-a]pyrido[3,2-e]pyrazin-6(6aH)-one], the inhibition constant (Ki) was found to be 0.54 nM.

Take `Cc1nnn(-c2ccc(C(F)F)cc2)c1COc1ccc(N2CC(C(=O)NC3CCOC3)C2)nn1` (stereo not shown) [Example 51, 1-(6-((1-(4-(Difluoromethyl)phenyl)-4-methyl-1H-1,2,3-triazol-5-yl)methoxy)pyridazin-3-yl)-N-(tetrahydrofuran-3-yl)azetidine-3-carboxamide]: the Ki worked out at 6.17 nM.

With `Cc1nnn(-c2ccc(C(F)F)cc2)c1COc1ccc(N2CC(C(C)C)N3CCNC[C@H]3C2=O)nn1` (stereo partly shown) [Example 215], the inhibitory constant (Ki) was 36.1 nM.

In the case of `Cc1nnn(-c2ccc(C(F)F)nc2)c1COc1ccc(N2CCNC(=O)C2)nn1` [Example 74, 4-(6-((1-(6-(Difluoromethyl)pyridin-3-yl)-4-methyl-1H-1,2,3-triazol-5-yl)methoxy)pyridazin-3-yl)piperazin-2-one], the Ki was found to be 23.6 nM.

As for `Cc1nnn(-c2ccc(C(F)F)cc2)c1COc1ccc(N2CCN3c4cccnc4NC(=O)[C@@H]3C2)nn1` [Example 193, (S)-3-(6-((1-(4-(difluoromethyl)phenyl)-4-methyl-1H-1,2,3-triazol-5-yl)methoxy)pyridazin-3-yl)-2,3,4,4a-tetrahydro-1H-pyrazino[1,2-a]pyrido[2,3-e]pyrazin-5(6H)-one], the Ki came to 1.45 nM.

`CCNC(=O)C1C2CN(c3ccc(OCc4c(C)nnn4-c4ccc(C(F)F)cc4)nn3)CC21` (stereo not shown) [Example 39, 3-(6-((1-(4-(Difluoromethyl)phenyl)-4-methyl-1H-1,2,3-triazol-5-yl)methoxy)pyridazin-3-yl)-N-ethyl-3-azabicyclo[3.1.0]hexane-6-carboxamide]: the inhibition constant (Ki) was found to be 1.59 nM.

For the compound `Cc1nnn(-c2ccc(C(F)F)cc2)c1COc1ccc(N2CC(=O)N3CCN(CC(F)(F)F)CC3C2)nn1` (stereo not shown) [Example 91, 2-(6-((1-(4-(Difluoromethyl)phenyl)-4-methyl-1H-1,2,3-triazol-5-yl)methoxy)pyridazin-3-yl)-8-(2,2,2-trifluoroethyl)octahydro-4H-pyrazino[1,2-a]pyrazin-4-one], the Ki worked out at 1.13 nM.

Take `Cc1nnn(-c2ccc(C(F)F)cc2)c1COc1ccc(N2CC(C(=O)NCc3ccccc3)C2)nn1` [Example 48, N-Benzyl-1-(6-((1-(4-(difluoromethyl)phenyl)-4-methyl-1H-1,2,3-triazol-5-yl)methoxy)pyridazin-3-yl)azetidine-3-carboxamide]: the Ki stood at 2.38 nM.

With `CCNC(=O)[C@H]1CCN1c1ccc(OCc2c(C)nnn2-c2ccc(C(F)F)cc2)nn1` [Example 40], the inhibition constant Ki is 33.6 nM.

In the case of `CCNC(=O)[C@H]1CCCN1c1ccc(OCc2c(C)nnn2-c2ccc(C(F)F)cc2)nn1` [Example 41, (R)-1-(6-((1-(4-(Difluoromethyl)phenyl)-4-methyl-1H-1,2,3-triazol-5-yl)methoxy)pyridazin-3-yl)-N-ethylpyrrolidine-2-carboxamide], the Ki was 42.6 nM.

Take `Cc1nnn(-c2ccc(CO)cc2)c1COc1ccc(N2CCNC(=O)C2)nn1` [Example 79, 4-(6-((1-(4-(hydroxymethyl)phenyl)-4-methyl-1H-1,2,3-triazol-5-yl)methoxy)pyridazin-3-yl)piperazin-2-one]: the inhibition constant (Ki) worked out at 32.5 nM.

Regarding `Cc1nnn(-c2ccc(C(F)F)cc2)c1COc1ccc(N2CC(=O)N3CCS(=O)(=O)C[C@@H]3C2)nn1` [Example 176, (S)-8-(6-((1-(4-(Difluoromethyl)phenyl)-4-methyl-1H-1,2,3-triazol-5-yl)methoxy)pyridazin-3-yl)hexahydropyrazino[2,1-c][1,4]thiazin-6(1H)-one 2,2-dioxide], the Ki turned out to be 1.34 nM.

Consider `Cc1nnn(-c2ccc(Cl)cc2)c1COc1ccc(N2CCNC(=O)C2)nn1` [Example 164, 4-(6-((1-(4-Chlorophenyl)-4-methyl-1H-1,2,3-triazol-5-yl)methoxy)pyridazin-3-yl)piperazin-2-one], for which the inhibition constant Ki was 2.4 nM.

For the compound `Cc1nnn(-c2ccc(C(F)F)cc2)c1COc1ccc(N2CC(=O)N3C[C@@H]4C[C@]3(CO4)C2)nn1` [Example 177, (3S,9aR)-8-(6-((1-(4-(Difluoromethyl)phenyl)-4-methyl-1H-1,2,3-triazol-5-yl)methoxy)pyridazin-3-yl)tetrahydro-1H-3,9a-methanopyrazino[2,1-c][1,4]oxazin-6(7H)-one], the inhibition constant Ki is 1.26 nM.

Take `Cc1nnn(-c2ccc(C(F)F)cc2)c1COc1ccc(N2CC(=O)N3CCS(=O)(=O)C[C@H]3C2)nn1` [Example 175, (R)-8-(6-((1-(4-(Difluoromethyl)phenyl)-4-methyl-1H-1,2,3-triazol-5-yl)methoxy)pyridazin-3-yl)hexahydropyrazino[2,1-c][1,4]thiazin-6(1H)-one 2,2-dioxide]: the Ki was determined as 2.63 nM.

In the case of `Cc1nnn(-c2ccc(C(F)F)cc2)c1COc1ccc(N2CCCC3(COC3)C2)nn1` [Example 85, 6-(6-((1-(4-(Difluoromethyl)phenyl)-4-methyl-1H-1,2,3-triazol-5-yl)methoxy)pyridazin-3-yl)-2-oxa-6-azaspiro[3.5]nonane], the Ki was 2.24 nM.

Take “4-(6-((1-(4-(Difluoromethyl)phenyl)-4-methyl-1H-1,2,3-triazol-5-yl)methoxy)pyridin-3-yl)-1-methyl-1,4-diazepan-2-one [Example 17]”: the inhibition constant Ki came to 4.32 nM.

`Cc1nnn(-c2ccc(C(F)F)cc2)c1COc1ccc(N2CC(C(=O)Nc3ccccc3)C2)nn1` [Example 47, 1-(6-((1-(4-(Difluoromethyl)phenyl)-4-methyl-1H-1,2,3-triazol-5-yl)methoxy)pyridazin-3-yl)-N-phenylazetidine-3-carboxamide]: the inhibition constant Ki was 1.1 nM.

For `O=C1CN(c2ccc(OCc3c(Cl)nnn3-c3ccc(C(F)F)cc3)nn2)C[C@@H]2COCCN12` [Example 182, (R)-8-(6-((4-Chloro-1-(4-(difluoromethyl)phenyl)-1H-1,2,3-triazol-5-yl)methoxy)pyridazin-3-yl)hexahydropyrazino[2,1-c][1,4]oxazin-6(1H)-one], the Ki came out at 0.71 nM.

Consider `Cc1nnn(-c2ccc(Cl)cn2)c1COc1ccc(N2CCNC(=O)C2)nn1` [Example 72, 4-(6-((1-(5-Chloropyridin-2-yl)-4-methyl-1H-1,2,3-triazol-5-yl)methoxy)pyridazin-3-yl)piperazin-2-one], for which the Ki turned out to be 0.46 nM.

Take `Cc1nnn(-c2ccc(C(F)F)cc2)c1COc1ccc(N2CCN(CCN3CCC(F)(F)CC3)C(=O)C2)nn1` [Example 109, 4-(6-((1-(4-(Difluoromethyl)phenyl)-4-methyl-1H-1,2,3-triazol-5-yl)methoxy)pyridazin-3-yl)-1-(2-(4,4-difluoropiperidin-1-yl)ethyl)piperazin-2-one]: the Ki amounted to 1.53 nM.

On to `Cc1nnn(-c2ccc(C(F)F)cc2)c1COc1ccc(N2CC[C@@H]3CCNC(=O)[C@@H]3C2)nn1` (relative stereo) [Example 123, cis-7-(6-((1-(4-(Difluoromethyl)phenyl)-4-methyl-1H-1,2,3-triazol-5-yl)methoxy)pyridazin-3-yl)octahydro-2,7-naphthyridin-1(2H)-one], for which the Ki was found to be 7.2 nM.

In the case of `Cc1nnn(-c2ccc(C(F)F)cc2)c1COc1ccc(N2CC(=O)N3CCOC[C@@H]3C2)nn1` [Example 174, (S)-8-(6-((1-(4-(Difluoromethyl)phenyl)-4-methyl-1H-1,2,3-triazol-5-yl)methoxy)pyridazin-3-yl)hexahydropyrazino[2,1-c][1,4]oxazin-6(1H)-one], the inhibition constant (Ki) was determined as 1.39 nM.

The assay is the same for the next values; noted with them: α5-GABAAR Ki, HEK293 cell membranes, 1 nM 3H-flunitrazepam.
The compound `CCNC(=O)C12CC(CN(c3ccc(OCc4c(C)nnn4-c4ccc(C(F)F)cc4)nn3)C1)C2` [Example 121, 3-(6-((1-(4-(Difluoromethyl)phenyl)-4-methyl-1H-1,2,3-triazol-5-yl)methoxy)pyridazin-3-yl)-N-ethyl-3-azabicyclo[3.1.1]heptane-1-carboxamide] displayed a Ki of 1.73 nM.
